The values that follow come from patent US7390789B2, “Thio-containing inhibitors of aminopeptidase P, and compositions thereof” (priority 2005, dated 2008).

The term IC50 denotes the midpoint of a concentration-inhibition curve.

Like-named read-outs stand apart in the source and are kept apart here.

In test [1] the target is T1, rat membrane aminopeptidase P (Rattus norvegicus, UniProt Q99MA2).
T1 sequence (Q99MA2 23-650): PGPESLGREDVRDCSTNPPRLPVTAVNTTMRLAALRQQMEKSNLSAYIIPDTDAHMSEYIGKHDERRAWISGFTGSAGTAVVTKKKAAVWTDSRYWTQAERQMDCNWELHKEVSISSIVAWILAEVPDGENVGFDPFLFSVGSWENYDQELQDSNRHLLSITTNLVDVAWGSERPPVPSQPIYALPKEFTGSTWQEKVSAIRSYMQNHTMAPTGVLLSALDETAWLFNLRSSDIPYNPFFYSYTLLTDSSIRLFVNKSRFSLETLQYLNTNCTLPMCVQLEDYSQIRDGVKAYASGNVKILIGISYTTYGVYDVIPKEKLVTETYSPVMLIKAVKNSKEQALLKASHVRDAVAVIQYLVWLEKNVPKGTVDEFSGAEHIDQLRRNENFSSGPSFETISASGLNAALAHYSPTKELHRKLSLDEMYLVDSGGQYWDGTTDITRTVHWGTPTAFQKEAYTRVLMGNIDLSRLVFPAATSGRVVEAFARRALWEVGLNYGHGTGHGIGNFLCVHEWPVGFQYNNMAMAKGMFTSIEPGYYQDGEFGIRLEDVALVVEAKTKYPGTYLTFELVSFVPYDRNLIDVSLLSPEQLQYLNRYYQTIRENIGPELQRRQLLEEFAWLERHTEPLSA
The test is described as follows: Inhibition of purified rat membrane aminopeptidase P with Arg-Pro-Pro substrate. The class given is biochemical. As to the method:
The IC50 for each of compounds IV-VIII was determined as the concentration in nmoles/liter (nM) required to inhibit rat membrane aminopeptidase P by 50% using Arg-Pro-Pro (0.5 mM) as the substrate. […] See Maggiora et al.,

A further test deals with myocardial infarct size. As to conditions: intact rats subjected to regional cardiac ischemia; cited from earlier work.
The next test concerns blood pressure. The conditions noted are these: rat model of severe hypertension; cited from earlier work.
The next test deals with bradykinin degradation. As to conditions: isolated perfused rat heart and lung; cited from earlier work.
Test [2] relates to bradykinin vasodepressor response. As to conditions: cited from earlier work.
For another test, the system named is isolated perfused heart. The conditions noted are these: cited from earlier work.
In a further test the test system is aminopeptidase P. As to conditions: cited from earlier work.
[3] abbreviates: purified rat membrane aminopeptidase P, Arg-Pro-Pro (0.5 mM) as the substrate, read-out: Binding affinity (IC50 in nanomolar).

As for `CC(NC(=O)C1CCCN1C(=O)C1CCCN1C(=O)CS)C(N)=O` (stereo not drawn) [Analog 1, N-mercaptoacetyl-Pro-Pro-Ala-NH2], the IC50 in test [1] (rat mAPP, read-out: IC50) stood at 3400 nM.

For the compound `CCCCC(S)C(=O)N1CCCC1C(=O)N1CCCC1C(=O)NC(C)C(N)=O` [Analog 2, N-[(R)-2-mercaptohexanoyl]-Pro-Pro-Ala-NH2], the IC50 in test [1] (setting [3]) was determined as 130 nM.

With `CCCCC(S)C(=O)N1CCCC1C(=O)N1C(C)CCC1C(=O)NC(C)C(N)=O` [Analog 3, N-[(R)-2-mercaptohexanoyl]-Pro-MePro-Ala-NH2], in test [1] (setting [3]), the IC50 was found to be 170 nM.

In the case of `O=C(O)CCNC(=O)[C@@H]1CCCN1C(=O)[C@@H]1CCCN1C(=O)[C@@H](S)C1CCCCC1` [Analog 4, N-[(S)-2-mercapto-2-cyclohexylacetyl]-Pro-Pro-β-Ala-OH], in test [1] (setting [3]), the IC50 is 87 nM.

On to `CCC(C)C(S)C(=O)N1CCCC1C(=O)N1CCCC1C(=O)NC(C)C(N)=O` [Analog 5, N-[(2S, 3S)-2-mercapto-3-methylpentanoyl]-Pro-Pro-Ala-NH2], for which the IC50 in test [1] (setting [3]) worked out at 10 nM.

Consider `C[C@H](NC(=O)[C@@H]1CCCN1C(=O)[C@@H]1CCCN1C(=O)[C@@H](O)[C@H](N)Cc1ccccc1)C(N)=O` [apstatin], for which, in the test on myocardial infarct size, the myocardial infarct size entry is on record as “substantially reduced myocardial infarct size”. Besides, the “blood pressure reduction with an ACE inhibitor” value in the test on blood pressure is “acted synergistically with an ACE inhibitor to reduce blood pressure to normal”. Besides, the bradykinin degradation result with bradykinin degradation is “reduce bradykinin degradation”. Moreover, the “effect on blood pressure-lowering effects of intravenously administered bradykinin” value in test [2] (rat, in vivo, iv) is listed as “enhanced”. In addition, the “dose at which bradykinin potentiation has been observed” value in test [2] (rats, intravenously, administered over a one hour period) is 0.08 to 0.8 mg/kg. For the same compound, the “reduction of reperfusion-induced ventricular fibrillation” value in the test on isolated perfused heart is reported as “by a similar amount”. The “reduction of cardiac damage” value in the test on isolated perfused heart (heart attack model) is 74%. Further, in the test on aminopeptidase P, the potency entry is given as “micromolar”.
